# Test results reported in patent publication US6465441B2, “Screening method for modulation of human mast cell activation” (Duska Scientific Co., priority 1997, dated 2002).
# Tests used:
# [1] = system: rat peritoneal mast cells; conditions: cited from earlier work
# [2] = system: human lung mast cells (HLMC); test: Histamine release assay, anti-IgE-induced histamine release from purified human lung mast cells; format: cell-based
# Method: (§1) Lung fragments were washed with Tyrode's buffer containing (g/l): NaCl, 8.0; KCl, 0.2; NaH2PO4, 0.05; and glucose, 1.0. The buffer was titrated to pH 7.2 by the addition of NaHCO3. Mast cell isolation and elutriation were performed in a buffer designated “TGMD”, prepared from Tyrode's buffer to which the following were added (g/l): gelatin (1.0), magnesium (0.25; 1 mM), and DNase (0.01). The buffer designated “PAGCM” was a Pipes-albumin (0.003%) buffer containing (g/l): glucose (1.0), CaCl2.2H2O, 0.14 (1 mM); and MgCl2.6H2O, 0.2 (1 mM).
# (§2) Mast cells were dispersed from human lung by methods previously reported (Schulman et al., J. Immunol. 29:2662-2667 (1982); Schulman et al., J. Immunol. 131:1936-1941 (1983)). Briefly, lung specimens obtained at thoracotomy for bronchogenic carcinoma were finely minced and extensively washed in divalent cation-free Tyrode's buffer. Fragments were briefly incubated in a mixture of pronase (2 mg/ml) and chymopapain (0.5 mg/ml). Freed cells were harvested through Nytex nylon cloth (150 microns pore size). Residual fragments were further exposed to a mixture of collagenase (1 mg/ml) and elastase (10 units/ml). All incubations and washes were performed at 37° C.; recovered cells were immediately washed three times in large volumes of TGMD. Mast cell purities in these human lung cell suspensions ranged from 1-8% as determined by alcian blue staining (Gilbert et al., Blood 46:279-285 (1975)). Lung mast cells were further purified, by counter-current elutriation, using previously reported methods (Schulman et al., J. Immunol. 131:1936-1941 (1983)). Mast cells were purified (80->98%) by flotation of enriched elutriation fractions through a discontinuous Percoll gradient (Ishizaka et al., J. Immunol. 130:2357-2362 (1983)). Further mast cell purification was accomplished by immunomagnetic negative selection against CD2, CD3, CD4, CD8, CD14, CD16, CD21 and HLADR to ensure against contamination by T cells, B calls, NK cells, monocytes, and dendritic cells prior to mast cell stimulation using previously described methods (Jaffe et al., Am. J. Respir. Cell. Mol. Biol. 13:665-675 (1995); Jaffe et al., Am. J. Respir. Cell. Mol. Biol. 15:473-481 (1996)).
# The concentrations of anti-IgE produce 30-70% of maximal release. Twenty minutes following activation, cells were rapidly pelleted and supernatants removed for histamine analysis. Histamine release was expressed as the net histamine released divided by the total histamine content×100%. The total cellular histamine content was determined following cell lysis with 2% perchloric acid. Spontaneous histamine release was always <2% of cellular histamine and generally <1%. Histamine measurements were performed using the automated spectrofluorometric method of Technicon (Tarrytown, N.Y.). Variations between replicates were consistently <5%. All assays were run in duplicates.
# human P2Y1 receptor = human P2Y1 receptor (Homo sapiens, UniProt P47900); conditions: cited from earlier work
# [3] = system: human lung mast cells (HLMC); test: Direct induction of histamine release from HLMC without anti-IgE; format: cell-based; conditions: for direct induction of histamine release: no anti-IgE
# Method: as §1
# as §2, with “Further mast cell purification was accomplished by immunomagnetic negative selection against CD2, CD3, CD4, CD8, CD14, CD16, CD21 and HLADR to ensure against contamination by T cells, B calls, NK cells, monocytes, and dendritic cells prior to mast cell stimulation using previously described methods (Jaffe et al., Am. J. Respir. Cell. Mol. Biol. 13:665-675 (1995); Jaffe et al., Am. J. Respir. Cell. Mol. Biol. 15:473-481 (1996)).” left out
# The concentrations of anti-IgE produce 30-70% of maximal release. […] Histamine release was expressed as the net histamine released divided by the total histamine content×100%. The total cellular histamine content was determined following cell lysis with 2% perchloric acid. […]
# HLMC = test: Functional ectoATPase assay of HLMC (HPLC detection of purine compounds); format: in vitro ADME, human; conditions: 10^−4M ATP, anti-IgE activated HLMC, 15 + 20 min incubation, n=3
# Method: The supernatants were separated from the cells by centrifugation at 14,000-×g for 5 minutes and kept at −20° C. until analyzed by HPLC. The method of Stocci et al., Anal. Biochem. 167:181-90 (1987) was used for the detection of the purine compounds. The HPLC system consisted of Waters 600E controller, Waters Novapak 4 μm 3.9×150 mm C18 column, and a 990 photodiode array detector. The solvent consisted of 0.1 mM KH2PO4, 8 mM tetrabutylammonium hydrogen sulfate (TAHS) pH 6.0 (buffer A), and 0.1 mM KH2PO4, 8 mM TAHS pH 6.0 with 30% (v/v) methanol (buffer B). The flow rate was 1 ml/min. with the following gradient program: 100% A to 2.5 min., linear gradient to 20% B at 5 min, to 40% B at 10 min., to 100% at 13 min., then 100% B to 30 min. 100 μl of supernatant (neat) was injected and the separation monitored at 254 nm over the 30 minute run time. The ATP peak areas were calculated and compared among the conditions. […] The data are the result of three experiments.
# [4] = Example 3, control 9.9±3.1%, ten experiments
# [5] = Example 4, 10^−4M (equimolar), control 14.9±3.9%, six experiments, p<0.05
# [6] = Example 5, 10^−4M, control 10.3±3.0%, n=6
# [7] = Example 5, 10^−5M, control 10.3±3.0%, n=6
# [8] = Example 3, control 9.9±3.1%, n=10
# Sequence of human P2Y1 receptor (P47900 whole entry): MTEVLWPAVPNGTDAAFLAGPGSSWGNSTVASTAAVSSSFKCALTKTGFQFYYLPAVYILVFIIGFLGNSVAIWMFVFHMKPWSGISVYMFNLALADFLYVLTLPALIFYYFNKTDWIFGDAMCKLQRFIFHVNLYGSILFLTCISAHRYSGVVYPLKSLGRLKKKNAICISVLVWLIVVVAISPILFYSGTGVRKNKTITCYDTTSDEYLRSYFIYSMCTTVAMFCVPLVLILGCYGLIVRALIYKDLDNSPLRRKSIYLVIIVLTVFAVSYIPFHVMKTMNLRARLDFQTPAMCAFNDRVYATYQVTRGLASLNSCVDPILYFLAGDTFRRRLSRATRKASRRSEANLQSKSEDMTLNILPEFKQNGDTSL
compound,measurement,setting,value
"Nc1ncnc2c1ncn2[C@@H]1O[C@H](COP(=O)(O)OP(=O)(O)CP(=O)(O)O)[C@@H](O)[C@H]1O [β,γmATP, β,γmethylene-ATP]",induction of mediator release,[1],inactive
same,effect on anti-IgE-induced histamine release,[2]; [4],enhanced
"Nc1ncnc2c1ncn2[C@@H]1O[C@H](COP(=O)(O)O)[C@@H](O)[C@H]1OP(=O)(O)O [A2P5P, adenosine-2′-phosphate-5′-phosphate]",agonist activity at the human P2Y1 receptor,human P2Y1 receptor,Partial agonists
uracil triphosphate [UTP],achieving mediator release in comparison with ATP,[1]; 10^−4M,almost inactive
same,anti-IgE-induced histamine release,[2]; [5],19.2±5.0%
"Nc1ncnc2c1ncn2[C@@H]1O[C@H](COP(=O)(O)OS(=O)(=O)O)[C@@H](OP(=O)(O)O)[C@H]1O [A3P5PS, adenosine-3′-phosphate-5′-phosphosulfate]",agonist activity at the human P2Y1 receptor,human P2Y1 receptor,devoid of agonist activity
Nc1ncnc2c1ncn2[C@@H]1O[C@H](CO)[C@@H](O)[C@H]1O [adenosine],direct induction of histamine release,[3]; adenosine alone,did not directly induce histamine release
same,anti-IgE-induced histamine release,"[2]; Example 5, 10^−3 M, control 10.3±3.0%, n=6, p<0.05",5.3±1.9%
same,anti-IgE-induced histamine release,[2]; [6],11.2±4.7%
same,anti-IgE-induced histamine release,[2]; [7],13.4±5.6%
"Nc1ncnc2c1ncn2[C@@H]1O[C@H](COP(=O)(O)O)[C@@H](OP(=O)(O)O)[C@H]1O [A3P5P, adenosine-3′-phosphate-5′-phosphate]",agonist activity at the human P2Y1 receptor,human P2Y1 receptor,devoid of agonist activity
"Cc1nc(N=Nc2ccc(S(=O)(=O)O)cc2S(=O)(=O)O)c(COP(=O)(O)O)c(C=O)c1O [PPADS, pyridzalphosphate-6-azophenyl-2′,4′-disulfonic acid]",anti-IgE-induced histamine release with ATP after preincubation with antagonist,"[2]; Example 9, ATP alone 15.7±7.1%, no significant modulation",16.1±5.9%
"Nc1ncnc2c1ncn2[C@@H]1O[C@H](COP(=O)(O)OP(=O)(O)OP(=O)(O)O)[C@@H](O)[C@H]1O [ATP, adenosine 5′-triphosphate]",direct induction of histamine release,"[3]; ATP 10^−7M-10^−3M, n=23",did not directly induce histamine release
same,histamine release on ATP challenge,"[3]; Ca^2+-free and Mg^2+-free media, results not shown",failed to provoke histamine release
same,concentration of maximum mediator secretion,[1]; depressed by Ca^2+ and Mg^2+,2 µM
same,concentration that inhibits mediator release,[1]; in the presence of millimolar Ca^2+,above 3 μM
same,area under the ATP peak vs control (ATP alone without HLMC),HLMC,no noticeable decrease
same,anti-IgE-induced histamine release,"[2]; 10^−3M, n=9, control 10.1+3.4%, not statistically significant (p>0.05)",14.0+2.4%
same,effect on anti-IgE-induced histamine release,"[2]; 10^−4M, 9 of 9 experiments, control 10.1+3.4%, p<0.05",enhanced histamine release
same,anti-IgE-induced histamine release,"[2]; 10^−4M, high responders, control 24.2±4.2%, n=7",32.9±4.5%
same,percent enhancement of anti-IgE-induced histamine release,"[2]; 10^−4M, high responders, n=7",35%
same,anti-IgE-induced histamine release,"[2]; 10^−4M, low responders (<3%), control 1.8±0.4%, n=6",13.5±2.7%
same,percent enhancement of anti-IgE-induced histamine release,"[2]; 10^−4M, low responders, n=6",750%
same,enhancement of anti-IgE-induced histamine release (absolute),"[2]; 10^−4M, lowest and highest anti-IgE responsive preparations",8-10%
same,effect on anti-IgE-induced histamine release,"[2]; 10^−5M, 9 of 9 experiments, control 10.1+3.4%, p<0.05",enhanced histamine release
same,effect on anti-IgE-induced histamine release,"[2]; 10^−6M, six preparations",no effects
same,anti-IgE-induced histamine release,"[2]; ATP 10^−4M, 20 anti-IgE-responsive preparations, control 10.9+2.7%, p<0.01",19.2+2.9%
same,anti-IgE-induced histamine release,[2]; [8],17.7±4.1%
same,anti-IgE-induced histamine release,[2]; [5],23.0±4.7%
same,anti-IgE-induced histamine release,[2]; [6],significantly enhanced
same,anti-IgE-induced histamine release,[2]; [7],significantly enhanced
same,anti-IgE-induced histamine release,"[2]; Example 9, ATP 10^4−M, control 11.2±5.3%, four experiments",15.7±7.1%
same,effect in preparations that failed to respond to anti-IgE alone,"[2]; preincubation 10^−6-10^−3M, 3/23 preparations",without effect
adenosine-2′-phosphate-5′-phosphoribose,agonist activity at the human P2Y1 receptor,human P2Y1 receptor,Partial agonists
"Nc1ncnc2c1ncn2[C@@H]1O[C@H](COP(=O)(O)CP(=O)(O)OP(=O)(O)O)[C@@H](O)[C@H]1O [α,βmATP, α,βmethylene-ATP]",induction of mediator release,[1],inactive
same,effect on anti-IgE-induced histamine release,[2]; [4],enhanced
"CSc1nc(N)c2ncn([C@@H]3O[C@H](COP(=O)(O)OP(=O)(O)OP(=O)(O)O)[C@@H](O)[C@H]3O)c2n1 [2-mSATP, 2methylthio-ATP]",anti-IgE-induced histamine release,[2]; [8],14.3±3.9%
